According to paper PMC9823356, “Inhibition of Cancer Cell Proliferation and Bacterial Growth by Silver(I) Complexes Bearing a CH3-Substituted Thiadiazole-Based Thioamide” (Molecules, 2023):

Experiments:
calf-thymus (CT) DNA = experiment: CT DNA interaction by UV-visible spectroscopy; details: upon addition of CT DNA
Procedure: The UV-visible spectra of CT DNA solution (1.5 × 10^−4 M) were recorded in the presence of each compound at diverse [compound]/[DNA] mixing ratios (r).

[1] = test system: DMS114 small cell lung cancer cells; experiment: MTT cytostatic/cytotoxic assay; format: cell-based, human; details: DMS114, 48 h treatment
Procedure: (§1) The cell lines were obtained from the American Type of Culture collection (ATCC), except HuP-T3 which was kindly donated from University of Crete, School of Medicine, Greece, and were grown in different culture medium according to the instructions.
(§2) For the determination of the cell viability, it was employed the MTT assay. Cells were plated in 96-well plate at a density of 1 × 10^4 cells/mL per well and maintained for 72 h at 37 °C in a 5% CO2 incubator and grown as monolayers. […] The viability of cultured cells was estimated by a (3-(4,5-imethylthiazol-2-yl)-2,5-diphenyltetrazolium bromide (MTT) metabolic assay as previously described.
(§3) In brief, MTT (Sigma, St Louis, Missouri, USA) was dissolved in PBS in a concentration of 5 mg/mL, filter sterilized, and stored at 4 °C. Then, 50 μL of stock solution was added to each culture and incubated for 3 h at 37 °C. Formazan crystals were solubilized by DMSO (100 μL). Absorbance of the converted dye was measured at a wavelength of 540 nm on ELISA reader (VersaMax Microplate Reader Orleans, USA). […] […] The percentage growth inhibition was calculated according to National Cancer Institute (NCI) as: {[(Tt72x) − (Ct24)]/[(Ct72) − (Ct24)]} × 100 for concentrations for which Tt72x>Ct24 and {(Tt72x) − (Ct24)]/(Ct24)} × 100 for concentrations for which Tt72x<Ct24. […] All experiments were carried out in triplicate. A significant difference was presumed to exist when p ≤ 0.05 (two tailed paired t test).

[2] = test system: SKOV-3 ovarian cancer cells; experiment: MTT cytostatic/cytotoxic assay; format: cell-based, human; details: SKOV-3, 48 h treatment
Procedure: as §1, §2, §3

[3] = test system: PC3 prostate adenocarcinoma cells; experiment: MTT cytostatic/cytotoxic assay; format: cell-based, human; details: PC3, 48 h treatment
Procedure: as §1, §2
(§4) In brief, MTT (Sigma, St Louis, Missouri, USA) was dissolved in PBS in a concentration of 5 mg/mL, filter sterilized, and stored at 4 °C. Then, 50 μL of stock solution was added to each culture and incubated for 3 h at 37 °C. Formazan crystals were solubilized by DMSO (100 μL). Absorbance of the converted dye was measured at a wavelength of 540 nm on ELISA reader (VersaMax Microplate Reader Orleans, USA). […] Using seven absorbance measurements [time 24 h (Ct24), control growth 72 h (Ct72), and test growth in the presence of drug at five concentration levels (Tt72x)], the percentage of growth was calculated at each level of the drug concentrations. The percentage growth inhibition was calculated according to National Cancer Institute (NCI) as: {[(Tt72x) − (Ct24)]/[(Ct72) − (Ct24)]} × 100 for concentrations for which Tt72x>Ct24 and {(Tt72x) − (Ct24)]/(Ct24)} × 100 for concentrations for which Tt72x<Ct24. […] All experiments were carried out in triplicate. A significant difference was presumed to exist when p ≤ 0.05 (two tailed paired t test).

[4] = test system: Hup-T3 pancreatic adenocarcinoma cells; experiment: MTT cytostatic/cytotoxic assay; format: cell-based, human; details: Hup-T3, 48 h treatment
Procedure: as §1, §2, §4

[5] = test system: EB–DNA conjugate (CT DNA); experiment: EB-DNA competitive binding, fluorescence quenching; design: species or system calf
Text: The potential EB-displacing ability of the compounds was studied by a stepwise addition of a compound’s solution into the EB–DNA solution. The resultant changes were monitored by recording the variation of fluorescence emission spectra with excitation wavelength at 540 nm. […] The Stern-Volmer constant (KSV, in M^−1) is used to evaluate the quenching efficiency for each compound according to the Stern-Volmer equation (Equation (2)):(2) Io/I=1+kqτ0[Q]=1+KSV[Q] where Io and I are the emission intensities of the EB–DNA solution in the absence and the presence of the quencher, respectively, [Q] is the concentration of the quencher, τo = the average lifetime of the emitting system without the quencher and kq = the quenching constant. KSV may be obtained from the Stern-Volmer plots by the slope of the diagram Io/I versus [Q]. Taking τo = 23 ns as the fluorescence lifetime of the EB–DNA system, the quenching constants (kq, in M^−1s^−1) of the compounds can be determined according to Equation (3):KSV = kqτo(3)

[6] = biological target: T1, BSA (bovine serum albumin) (Bos taurus, UniProt P02769); experiment: Serum albumin tryptophan fluorescence quenching; format: binding
T1 construct: purchased
T1 sequence (P02769 25-607): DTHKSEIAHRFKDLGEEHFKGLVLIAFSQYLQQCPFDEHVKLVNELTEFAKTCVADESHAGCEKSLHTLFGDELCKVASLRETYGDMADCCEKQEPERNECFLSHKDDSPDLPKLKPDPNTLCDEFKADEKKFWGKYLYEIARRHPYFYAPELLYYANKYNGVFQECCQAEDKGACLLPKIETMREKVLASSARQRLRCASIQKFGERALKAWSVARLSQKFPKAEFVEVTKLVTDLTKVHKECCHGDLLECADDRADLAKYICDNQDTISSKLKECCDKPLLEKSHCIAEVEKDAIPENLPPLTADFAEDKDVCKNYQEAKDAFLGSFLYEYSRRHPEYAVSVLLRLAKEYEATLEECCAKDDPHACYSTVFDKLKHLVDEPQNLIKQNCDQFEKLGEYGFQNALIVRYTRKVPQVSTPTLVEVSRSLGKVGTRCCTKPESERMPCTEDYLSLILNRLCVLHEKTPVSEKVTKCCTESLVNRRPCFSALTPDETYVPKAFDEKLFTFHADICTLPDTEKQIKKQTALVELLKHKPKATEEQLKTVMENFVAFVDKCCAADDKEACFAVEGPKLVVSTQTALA
Procedure: (§5) The serum albumin (SA) binding study was performed by tryptophan fluorescence quenching experiments using BSA (3 μM) or HSA (3 μM) in buffer (containing 1 mM trisodium citrate and 150 mM NaCl at pH 7.0).
(§6) The Stern-Volmer and Scatchard graphs are used in order to study the interaction of a quencher with serum albumins. According to Stern-Volmer quenching equation (Equation (2)), where Io = the initial tryptophan fluorescence intensity of SA, I = the tryptophan fluorescence intensity of SA after the addition of the quencher, kq = the quenching constant, KSV = the Stern-Volmer constant, τo = the average lifetime of SA without the quencher, [Q] = the concentration of the quencher. KSV (M^–1) can be obtained by the slope of the diagram Io/I versus [Q], and subsequently the quenching constant (kq, M^–1s^–1) is calculated from Equation (3) with τ0 = 10^–8 s as fluorescence lifetime of tryptophan in SA.
(§7) From the Scatchard equation (5) ΔΙ/Ιο/Q=nK−kΔΙ/Ιο where, n is the number of binding sites per albumin and K is the SA-binding constant, K (in M^–1) is calculated from the slope in plots ΔΙ/Ιο/Q versus ΔΙ/Ιο and n is given by the ratio of y intercept to the slope.

[7] = biological target: T2, HSA (human serum albumin) (Homo sapiens, UniProt P02768); experiment: Serum albumin tryptophan fluorescence quenching; format: binding
T2 construct: purchased
T2 sequence (P02768 25-609): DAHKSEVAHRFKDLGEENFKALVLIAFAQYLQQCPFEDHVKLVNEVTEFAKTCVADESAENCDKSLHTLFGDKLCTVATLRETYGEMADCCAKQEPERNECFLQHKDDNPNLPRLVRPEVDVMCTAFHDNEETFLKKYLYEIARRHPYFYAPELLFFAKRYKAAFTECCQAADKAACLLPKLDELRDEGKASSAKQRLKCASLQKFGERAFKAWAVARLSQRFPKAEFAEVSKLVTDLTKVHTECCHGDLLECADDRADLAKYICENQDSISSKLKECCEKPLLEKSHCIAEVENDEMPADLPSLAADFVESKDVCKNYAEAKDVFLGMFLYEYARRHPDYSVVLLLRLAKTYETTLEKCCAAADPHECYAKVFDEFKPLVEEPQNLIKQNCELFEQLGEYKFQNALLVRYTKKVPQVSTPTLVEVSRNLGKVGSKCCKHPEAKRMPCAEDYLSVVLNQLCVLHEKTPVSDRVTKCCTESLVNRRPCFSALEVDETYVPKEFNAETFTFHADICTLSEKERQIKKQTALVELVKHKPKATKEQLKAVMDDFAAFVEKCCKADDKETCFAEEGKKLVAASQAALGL
Procedure: as §5, §6, §7

[8] = cytocidal/cytotoxic, read-out: IC50 (the source's name)

## [Ag(mtdztH)(dppe)(NO3)]n [Compound 4]
calf-thymus (CT) DNA; DMSO solution, + hyperchromism, – hypochromism
  percentage of hyper-/hypochromism ΔA/Aο: –13%
calf-thymus (CT) DNA
  hypochromism (intensity decrease) of absorption band at 272 nm: up to 13%
[1]; [8]
  LC50: 3100 ± 50 nM
[1]; growth inhibition
  GI50: 500 ± 40 nM
[1]; total growth inhibition
  TGI: 1.0±0.05 μΜ
[2]; [8]
  LC50: 2300 ± 50 nM
[2]; growth inhibition
  GI50: 1000 ± 20 nM
[2]; total growth inhibition
  TGI: 2.0±0.03 μΜ
[3]; [8]
  LC50: 3600 ± 50 nM
[3]; growth inhibition
  GI50: 600 ± 30 nM
[3]; total growth inhibition
  TGI: 1.6±0.03 μΜ
[4]; cytocidal/cytotoxic
  IC50: 3000 ± 40 nM
[4]; growth inhibition
  GI50: 400 ± 20 nM
[4]; total growth inhibition
  TGI: 0.9±0.04 μΜ
[5]
  EB-DNA Stern–Volmer constant KSV: 5.68 (±0.20) × 10^4 M^−1
[5]; λex 540 nm
  EB–DNA fluorescence quenching ΔI/Iο: 27.6%
[6]; λex 295 nm, λem 350 nm
  decrease in BSA fluorescence: 44.5%
[6]; τ0 = 10^–8 s
  emission-quenching constant kq: 7.15 (±0.40) × 10^12 M^−1s^−1
[7]; Scatchard equation
  binding constant K: 7.21 (±0.53) × 10^4 M^−1
[7]; λex 295 nm, λem 338 nm
  HSA emission quenching: 23%
[7]; τ0 = 10^–8 s
  emission-quenching constant kq: 5.11 (±0.37) × 10^11 M^−1s^−1
